Paper PMC12292862 (Biomedicines, 2025)
Entries after “also recorded” stand apart in the source; their conditions may differ. Marks after values point to notes of the source that are not given here.

Legend:
IL-1α = assay: Serum IL-1α (ELISA) in carrageenan-injected rats; type: in vivo, rat; conditions: compounds 200 mg/kg i.p., indomethacin 10 mg/kg, mean ± SD
Procedure: (§1) The selective pro-inflammatory cytokines were measured quantitatively using rat-specific Enzyme-Linked Immunosorbent Assay (ELISA) kits from Thermo Scientific™ (Waltham, MA, USA) with CAT. No. ERCRP for CRP; from Elabscience with Cat. No. E-EL-R2856 for TNF-α and with Cat. No. E-EL-R0011 for IL-1α; from CUSABIO, Houston, TX, USA, with Cat. No. CSB-E04640r for IL-6; and from My BioSource Co, USA, with Cat. No. MBS825017 for IL-1β, with Cat. No. MBS753621 for rat cyclooxygenase 1, and with Cat. No. MBS266603 for rat cyclooxygenase 2. Meanwhile, an ovine COX inhibitor-screening in vitro assay (item number 760111) was obtained from Cayman Chemical (Ann Arbor, MI, USA). We purchased malondialdehyde (MDA), glutathione (GSH), and superoxide dismutase (SOD) detection kits from Nanjing Jiancheng Bio-Technology Co. Ltd. (Nanjing, China).
(§2) At the end of the experiments, the rats were subjected to anesthesia with chloroform and then sacrificed. Blood was obtained via heart puncture for biochemical analysis. Following the animals’ sacrifice, the paws were taken out, decalcified, and stored in a 10% formalin solution. To prepare the tissue samples, they were sliced into thicknesses of 5 µm. Hematoxylin and eosin dyes were used to create the histology slides, which were then examined using a photomicroscope (Meiji Techno®, Iruma, Japan) for pathological alterations. The presence of inflammation was documented. Protease/phosphatase inhibitor cocktail in cold phosphate-buffered saline (1:4) (pH 7, 0.01 mol/L) (Cat. No. PPC1010, Sigma-Aldrich) was used to homogenize each rat’s paw piece in a glass homogenizer. After filtering and centrifuging the resultant homogenate for five minutes at 5000× g, oxidative stress biomarkers like GSH, SOD, and MDA were measured. The trials were repeated three times.

rat paw tissue [1] = assay: Histomorphometry lesion scores of paw tissue sections; type: in vivo; conditions: vs carrageenan group; for inflammation scores: Figure 11A; for total lesion scores: Figure 11D
rat cyclooxygenase 1 = assay: COX-1 level in carrageenan-injected paw (ELISA); type: in vivo; conditions: compounds 200 mg/kg i.p., indomethacin 10 mg/kg, mean ± SD
Procedure: as §1, §2

COX-2 = assay: In vitro colorimetric COX (ovine) inhibitor-screening assay, COX-2; type: biochemical; conditions: ovine COX-2, tested at 50, 100 and 150 µg/mL
Procedure: (§3) The test compounds’ ability to suppress COX-1 and COX-2 was evaluated using a colorimetric COX (ovine) inhibitor-screening method (Cayman Chemical, Item Number 760111). In brief, 150 μL of assay buffer, 10 μL of heme, 10 μL of enzyme (COX-1 or COX-2), and 10 μL of compound (1 mg/mL) make up the reaction mixture. In a final volume of […], the test compounds were evaluated at doses of 50, 100, and 150 μg/mL. The cyclooxygenase peroxidase component is used in the experiment. By monitoring the appearance of oxidized N, N, […] (TMPD) at 590 nm, the peroxidase activity is measured […]. […] The following formula was used to determine the % COX inhibition: The COX inhibition activity percentage is equal to (1 − T/C ×100), where T is the inhibitor well’s absorbance and C is the starting activity’s absorbance at 100% without the inhibitor well.

Wistar rats = assay: Acute toxicity pilot study (OECD 423); type: in vivo; conditions: rat, i.p., 200 mg/kg
Procedure: According to OECD guidelines (Testing of Chemical Number 423), the study was carried out. In this study, mature male Wistar rats in good health were selected. After a 24 h fast, the animals were divided into groups of six. The test compounds were injected intraperitoneally at dosages ranging from 100 mg to 2000 mg per kilogram, dissolved in 2% Tween 80 saline solutions (v/v). The animals in the control groups were given just the vehicle, which was Tween 80 in 0.9% normal saline. […] Thus, 200 mg/kg (ED 50), which is considered one-tenth of the LD 50, was chosen as the anti-inflammatory dose.

rat paw tissue [2] = assay: Histopathological examination of paw tissue (HE); type: in vivo; conditions: carrageenan-injected paw; compounds 200 mg/kg i.p., indomethacin 10 mg/kg
Source text: as §2

IL-1β = assay: Serum IL-1β (ELISA) in carrageenan-injected rats; type: in vivo, rat; conditions: compounds 200 mg/kg i.p., indomethacin 10 mg/kg, mean ± SD
Procedure: as §1, §2

COX-1 = target: T1, COX-1 (Ovis aries, UniProt P05979); assay: In vitro colorimetric COX (ovine) inhibitor-screening assay, COX-1; type: biochemical; conditions: ovine COX-1, tested at 50, 100 and 150 µg/mL
T1 construct: purchased Cayman Chemical 760111
T1 sequence (P05979 25-600): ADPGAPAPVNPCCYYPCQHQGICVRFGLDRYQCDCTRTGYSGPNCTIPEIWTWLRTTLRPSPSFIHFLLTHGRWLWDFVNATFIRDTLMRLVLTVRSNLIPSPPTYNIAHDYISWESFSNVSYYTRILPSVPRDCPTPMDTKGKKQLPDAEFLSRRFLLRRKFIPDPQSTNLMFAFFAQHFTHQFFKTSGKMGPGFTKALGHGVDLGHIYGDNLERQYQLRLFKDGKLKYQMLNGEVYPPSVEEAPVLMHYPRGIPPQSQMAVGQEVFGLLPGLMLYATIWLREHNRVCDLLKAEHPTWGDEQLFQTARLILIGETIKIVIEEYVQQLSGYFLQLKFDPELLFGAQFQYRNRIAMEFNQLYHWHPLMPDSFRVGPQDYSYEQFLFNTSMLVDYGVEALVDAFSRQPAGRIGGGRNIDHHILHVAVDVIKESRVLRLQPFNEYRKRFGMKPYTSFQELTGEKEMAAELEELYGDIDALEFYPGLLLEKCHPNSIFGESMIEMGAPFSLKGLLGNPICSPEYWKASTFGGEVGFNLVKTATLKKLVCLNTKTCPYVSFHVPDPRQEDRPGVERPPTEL
Procedure: as §3

[3] = tested on: superoxide dismutase (SOD); assay: Paw tissue oxidative stress biomarker SOD; type: in vivo, rat; conditions: carrageenan rats, 200 mg/kg i.p.
Procedure: as §1, §2

TNF-α = assay: Serum TNF-α (ELISA) in carrageenan-injected rats; type: in vivo, rat; conditions: compounds 200 mg/kg i.p., indomethacin 10 mg/kg, mean ± SD
Procedure: as §1, §2

[4] = listed as compound 3, 200 mg/kg

SMILES	IL-1α (IL-1α)	inflammation scores (rat paw tissue [1])	total lesion scores (rat paw tissue [1])	COX-1 level (rat cyclooxygenase 1) [ng/mL]	COX-2 inhibition % (mean activity) (COX-2) [%]	Ability to feed (Wistar rats)	Change in skin color (Wistar rats)	Death (Wistar rats)	Diarrhea (Wistar rats)	Drowsiness (Wistar rats)	Dyspnea (Wistar rats)	Micturition (Wistar rats)	Seizures (Wistar rats)	Weight loss (Wistar rats)	histopathological findings of paw tissue (HE) (rat paw tissue [2])	IL-1β (IL-1β)	COX-1 inhibition % (mean activity) (COX-1) [%]	SOD activity [3]	TNF-α (TNF-α)	other results
NC1=NC2(CCCCCC2)n2nc(C(=O)Nc3ccc(S(N)(=O)=O)cc3)nc2N1 [Compound 1, 5′-Amino-N-(4-sulfamoylphenyl). -1′H-spiro[cycloheptane-1,7′-[1,2,4]triazolo[1,5-a][1,3,5] -triazine] -2′-carboxamide]	56.97 ± 0.79 ^b pg/mL	significantly reduced inflammation scores	reduced total lesion scores significantly	4.31 ± 0.90	98	Normal	Normal	No	Present	Absent	Absent	Normal	Absent	No	mild inflammatory dermal edema	64.98 ± 0.30 ^b pg/mL	70	notable improvements	8.27 ± 0.19 ^b pg/mL	Death (Wistar rats; listed as compound 1, 200 mg/kg): no mortality
CC1(C)CC(=O)CC2(C1)N=C(N)Nc1nc(C(=O)Nc3ccc(S(N)(=O)=O)cc3)nn12 (stereo not shown) [Compound 2]	62.82 ± 0.94 ^b pg/mL			5.24 ± 0.09	98	Normal	Normal	No	Present	Absent	Absent	Normal	Absent	No	moderate edema	77.98 ± 0.45 ^b pg/mL	69	notable improvements	9.38 ± 0.20 ^b pg/mL	Death (Wistar rats; listed as compound 2, 200 mg/kg): no mortality
NC1=NC2(c3ccccc3Cc3ccccc32)n2nc(C(=O)Nc3ccc(S(N)(=O)=O)cc3)nc2N1 [Compound 3]	40.66 ± 0.43 ^b pg/mL	approaching those of the normal control group	reduced total lesion scores significantly; also recorded: comparable to the normal control group	2.82 ± 0.08	99	Normal	Normal	No	Present	Absent	Absent	Normal	Absent	No	normal dermis; also recorded: normal dermis without any lesion; also recorded: normal histological structure without edema or lesions	60.38 ± 0.73 pg/mL	70		7.16 ± 0.13 pg/mL	inflammation scores (rat paw tissue [1]; listed as compound 3): significantly reduced inflammation scores; edema scores (rat paw tissue [1]; Figure 11B): comparable to those of the control group; vascular alteration scores (rat paw tissue [1]; Figure 11C): near-normal levels; Death (Wistar rats; [4]): no mortality; IL-1β (IL-1β; listed as C3): 60.38 ± 0.73 ^b pg/mL; SOD activity ([3]; 200 mg/kg): near-control values; SOD activity [3, 4]: 38.48 ± 0.31 U/mg protein; TNF-α (TNF-α; listed as C3): 7.16 ± 0.13 ^b pg/mL
